The values below come from PubChem BioAssay (NCI).

Test systems include HOP-62 NSCLC; SR leukemia; NCI/ADR-RES ovarian; SK-MEL-5 melanoma; TK-10 renal; A498 renal; IGROV1 ovarian; NCI-H23 lung; OVCAR-5 ovarian; LOX IMVI melanoma.
Common to all, as to experiment: NCI tumour cell line growth inhibition, 48 h

Several values for one entry are separate records, joined by “and”; a condition that tells them apart may be missing. Identical values can stand only once.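 The compound was tested at five concentrations on cells cultured in 96-well plates, with a 48-hour exposure period. Here, GI50 denotes the concentration required for 50% inhibition of growth. TGI: total growth inhibition.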 Where only a bound is given, the exact number is not on record here.

As to `O=C1Nc2ccccc2/C1=C\c1nc(-c2ccccc2F)n2ccccc12`, the GI50 with HOP-62 NSCLC is 2.37 µM; in the assay on SR leukemia it was 11 µM; in the assay with NCI/ADR-RES ovarian, 3.36 µM; with SK-MEL-5 melanoma, 2.8 µM; in the assay on TK-10 renal, 4.05 µM; in the assay with A498 renal, 2.81 µM. Moreover, the GI50 in the assay with IGROV1 ovarian was 2.04 µM; in the assay on NCI-H23 lung, 4.55 µM; with OVCAR-5 ovarian, 18 µM; in the assay with LOX IMVI melanoma it was 4.15 µM. Moreover, the TGI in the assay with HOP-62 NSCLC was determined as 5.93 µM; in the assay with SR leukemia it was 29.4 µM; in the assay with NCI/ADR-RES ovarian it was 13.3 µM; with SK-MEL-5 melanoma, 11.4 µM; in the assay on TK-10 renal, 14.2 µM; in the assay with A498 renal, 11 µM. The TGI in the assay with IGROV1 ovarian was 12.5 µM; in the assay with NCI-H23 lung it was 17.3 µM; with OVCAR-5 ovarian, 53.5 µM; in the assay with LOX IMVI melanoma it was 15.6 µM.

Take `Cn1cc(C2=C(c3cn(CCCN)c4ccccc34)C(=O)NC2=O)c2ccccc21`: the GI50 with HOP-62 NSCLC was 6.09 µM; with SR leukemia, 2.53 µM; in the assay with NCI/ADR-RES ovarian it was 10.8 µM; with SK-MEL-5 melanoma, 3.77 µM; in the assay on TK-10 renal, 4.86 µM; with A498 renal, 3.92 µM. Moreover, the GI50 was 8.95 µM in the assay with IGROV1 ovarian, 5.17 µM with NCI-H23 lung, 9.52 µM in the assay on OVCAR-5 ovarian and 3.4 µM in the assay with LOX IMVI melanoma. For the same compound, the TGI in the assay with HOP-62 NSCLC is 17 µM; in the assay with SR leukemia, 13.8 µM; in the assay with NCI/ADR-RES ovarian, > 25 µM; in the assay on SK-MEL-5 melanoma, 7.26 µM; with TK-10 renal it was 12.8 µM; in the assay with A498 renal it was 9.18 µM. The TGI with IGROV1 ovarian was > 19.7 µM; in the assay on NCI-H23 lung it was 14.2 µM; in the assay on OVCAR-5 ovarian it was > 25 µM; with LOX IMVI melanoma it was 7.49 µM.

Turning to `CCOc1ccc(C(C[N+](=O)[O-])Sc2ccccc2N)cc1` (stereo unspecified), the GI50 is 18.3 µM with HOP-62 NSCLC; 2.3 µM in the assay with SR leukemia; 14.3 µM with NCI/ADR-RES ovarian; 6.34 µM with SK-MEL-5 melanoma; 15.4 µM with TK-10 renal; 12.5 µM in the assay with A498 renal. Also, the GI50 in the assay with IGROV1 ovarian is 3.33 µM; in the assay with NCI-H23 lung it was 8.71 µM; in the assay on OVCAR-5 ovarian it was 11.2 µM; in the assay on LOX IMVI melanoma, 1.44 µM. The TGI with HOP-62 NSCLC stood at 32.3 µM; with SR leukemia it was 5.17 µM; in the assay on NCI/ADR-RES ovarian, 28.1 µM; in the assay on SK-MEL-5 melanoma it was 19.4 µM; in the assay with TK-10 renal, 29.2 µM; in the assay on A498 renal, 25 µM. Moreover, the TGI in the assay with IGROV1 ovarian is 13.2 µM; in the assay with NCI-H23 lung, 21.6 µM; in the assay with OVCAR-5 ovarian, 23.2 µM; with LOX IMVI melanoma it was 2.92 µM.

Regarding `[N-]=[N+]=NCCCn1c2c(c3ccc([N+](=O)[O-])cc3c1=O)C(=O)c1cc(-c3ccccc3)ccc1-2`, the GI50 was > 100 µM with HOP-62 NSCLC; 37.2 µM in the assay on SR leukemia; > 100 µM in the assay with NCI/ADR-RES ovarian; 89 µM in the assay with SK-MEL-5 melanoma; > 100 µM in the assay on TK-10 renal; > 100 µM in the assay with A498 renal. The GI50 with IGROV1 ovarian, in the assay on NCI-H23 lung, in the assay with OVCAR-5 ovarian and in the assay with LOX IMVI melanoma was > 100 µM throughout. Further, the TGI in the assay on HOP-62 NSCLC, in the assay with SR leukemia, in the assay with NCI/ADR-RES ovarian, in the assay with SK-MEL-5 melanoma, in the assay on TK-10 renal and in the assay with A498 renal was > 100 µM in each case. Also, the TGI with IGROV1 ovarian, in the assay on NCI-H23 lung, in the assay on OVCAR-5 ovarian and in the assay on LOX IMVI melanoma was > 100 µM in each case.

As for `NC(Cc1c[nH]c2ccc([N+](=O)[O-])cc12)C(=O)O` (stereo unspecified), the TGI in the assay with HOP-62 NSCLC, with SR leukemia, with NCI/ADR-RES ovarian, in the assay on SK-MEL-5 melanoma, with TK-10 renal and in the assay with A498 renal was > 100 µM each time. The TGI in the assay on IGROV1 ovarian, in the assay on NCI-H23 lung, in the assay with OVCAR-5 ovarian and with LOX IMVI melanoma was > 100 µM each time.

For the compound `O=C1NC2(CCCCC2)C(=O)N1CCN(CCCl)CCCl`, the GI50 was > 25 µM in the assay with HOP-62 NSCLC; > 25 µM in the assay with NCI/ADR-RES ovarian; > 25 µM in the assay with SK-MEL-5 melanoma; > 25 µM in the assay with A498 renal; 17.7 µM in the assay with IGROV1 ovarian; 24.8 µM with NCI-H23 lung. The GI50 in the assay on OVCAR-5 ovarian and in the assay on LOX IMVI melanoma was > 25 µM throughout. Also, the TGI is > 25 µM and 149 µM with HOP-62 NSCLC; 25 µM in the assay with SR leukemia; > 25 µM and 184 µM with NCI/ADR-RES ovarian; > 250 µM in the assay with SK-MEL-5 melanoma; > 25 µM with TK-10 renal; > 250 µM with A498 renal. Further, the TGI in the assay on OVCAR-5 ovarian and with LOX IMVI melanoma was > 250 µM throughout.

In the case of `CNC(=O)c1c(F)cccc1Nc1nc(Nc2cc3c(cc2OC)CCN3C(=O)CN(C)C)nc2[nH]ccc12`, the GI50 is 5.5 µM in the assay with HOP-62 NSCLC; 0.0203 µM in the assay with SR leukemia; 9.69 µM with NCI/ADR-RES ovarian; 5.67 µM with SK-MEL-5 melanoma; 4.76 µM in the assay on TK-10 renal; > 39.6 µM with A498 renal. Besides, the GI50 with IGROV1 ovarian is 17.5 µM; in the assay with NCI-H23 lung it was 13.3 µM; with OVCAR-5 ovarian, 4.88 µM; with LOX IMVI melanoma it was 2.4 µM. Also, the TGI with HOP-62 NSCLC was 20.8 µM; with SR leukemia, > 100 µM; in the assay with NCI/ADR-RES ovarian, > 61.5 µM; in the assay on SK-MEL-5 melanoma, 23.1 µM; with TK-10 renal, 11.8 µM; in the assay on A498 renal, > 58.7 µM. Also, the TGI with IGROV1 ovarian is 43.1 µM; in the assay on NCI-H23 lung it was 34 µM; with OVCAR-5 ovarian it was 26.3 µM; in the assay on LOX IMVI melanoma, 7.26 µM.

Take `Clc1cccc(CNc2c3ccccc3nc3ccccc23)c1`: the GI50 was 2.77 µM with HOP-62 NSCLC; 1.47 µM in the assay on SR leukemia; 1.8 µM in the assay with NCI/ADR-RES ovarian; 1.72 µM in the assay with SK-MEL-5 melanoma; 2.95 µM with TK-10 renal; 1.3 µM in the assay with A498 renal. For the same compound, the GI50 is 1.91 µM in the assay with IGROV1 ovarian, 1.73 µM in the assay with NCI-H23 lung, 2.06 µM in the assay with OVCAR-5 ovarian and 1.53 µM with LOX IMVI melanoma. In addition, the TGI with HOP-62 NSCLC is 12.4 µM; with SR leukemia, 4.55 µM; with NCI/ADR-RES ovarian, 4.97 µM; in the assay with SK-MEL-5 melanoma, 3.13 µM; in the assay on TK-10 renal, 8.99 µM; with A498 renal, 2.67 µM. Besides, the TGI with IGROV1 ovarian stood at 5.46 µM; in the assay with NCI-H23 lung it was 4.93 µM; in the assay on OVCAR-5 ovarian, 6.54 µM; in the assay on LOX IMVI melanoma, 3.08 µM.
